Here are results for 38 molecules from US6589974B1, “Pyrazolyl benzyl ether derivatives containing a fluoromethoxyimino group and use thereof as pesticides” (Bayer Aktiengesellschaft, priority 1999, dated 2003).

The structures appear in SMILES notation. Where only a bound is given, the exact number is not on record here.

The first series deals with Erysiphe graminis f.sp. hordei. The series can be described thus: Erysiphe Test (barley)/protective. The settings on record: protective, application rate 250 g/ha, evaluation 7 days after inoculation. The format is in vivo. Here is the method: Erysiphe Test (barley)/protective Solvent: 25 parts by weight of N,N-dimethylacetamide Emulsifier: 0.6 part by weight of alkylaryl polyglycol ether To produce a suitable preparation of active compound, 1 part by weight of active compound is mixed with the stated amounts of solvent and emulsifier, and the concentrate is diluted with water to the desired concentration. To test for protective activity, young plants are sprayed with the preparation of active compound at the stated application rate. After the spray coating has dried on, the plants are dusted with spores of Erysiphe graminis f.sp. hordei. The plants are placed in a greenhouse at a temperature of about 20° C. and a relative atmospheric humidity of about 80% to promote the development of mildew pustules.
Regarding `CNC(=O)C(=NOCF)c1ccccc1COc1ccn(-c2ccc(Cl)cc2)n1` [Example 2, 2-[2-({[1-(4-chlorophenyl)-1H-pyrazol-3-yl]oxy}methyl)phenyl]-2-[(fluoromethoxy)imino]-N-methylacetamide], the efficacy is ≥ 98%.

The test system of the next series is larvae of the mustard beetle (Phaedon cochleariae). The series can be described thus: Phaedon Larvae Test. The format is in vivo. The settings on record: cabbage leaves (Brassica oleracea) dipped, concentration of active compound 1000 ppm. On the procedure: Phaedon Larvae Test Solvent: 30 parts by weight of acetone Emulsifier: 1 part by weight of alkylaryl polyglycol ether To produce a suitable preparation of active compound, 1 part by weight of active compound is mixed with the stated amounts of solvent and emulsifier, and the concentrate is diluted with emulsifier-containing water to the desired concentration. Cabbage leaves (Brassica oleracea) are treated by being dipped into the preparation of active compound of the desired concentration and are populated with larvae of the mustard beetle (Phaedon cochleariae) while the leaves are still moist. After the desired period of time, the kill in % is determined. 100% means that all beetle larvae have been killed; 0% means that none of the beetle larvae have been killed.
`COC(=O)C(=NOCF)c1ccccc1COc1ccn(-c2ccc(Cl)cc2)n1` [Example 1, methyl 2-[2-({[1-(4-chlorophenyl)-1H-pyrazol-3-yl]oxy}methyl)phenyl]-2-[(fluoromethoxy)imino]acetate]: the kill rate came out at 100%.

Another series has as its system green peach aphid (Myzus persicae). The series is described as follows: Myzus Test. The settings on record: broad bean seedlings (Vicia faba) dipped, concentration of active compound 1000 ppm. It counts as in vivo. Here is the method:
Myzus Test Solvent: 30 parts by weight of acetone Emulsifier: 1 part by weight of alkylaryl polyglycol ether To produce a suitable preparation of active compound, 1 part by weight of active compound is mixed with the stated amounts of solvent and emulsifier, […], and the concentrate is diluted with emulsifier-containing water to the desired concentrations. Broad bean seedlings (Vicia faba) infested by the green peach aphid (Myzus persicae) are dipped into a preparation of active compound of the desired concentration and placed in a dish made of plastic. After the desired period of time, the kill in % is determined. 100% means that all animals have been killed; 0% means that none of the animals have been killed.
`COC(=O)C(=NOCF)c1ccccc1COc1ccn(-c2ccc(Cl)cc2)n1` [Example 1, methyl 2-[2-({[1-(4-chlorophenyl)-1H-pyrazol-3-yl]oxy}methyl)phenyl]-2-[(fluoromethoxy)imino]acetate] came in with a kill rate of 95%.

System in another series: not listed separately
The series can be described thus: logP determination by HPLC (EEC Directive 79/831 Annex V.A8).
Conditions: not given
It counts as physicochemical. Here is the method:
The logP values were determined in accordance with EEC Directive 79/831 Annex V.A8 by HPLC (gradient method, acetonitrile/0.1% aqueous phosphoric acid).
The term chromatographic logP denotes a lipophilicity value derived from retention on a column. Higher therefore signals a more lipophilic compound. `CNC(=O)C(=NOCF)c1ccccc1COc1ccn(-c2ccc(Cl)cc2)n1` [Example 2, 2-[2-({[1-(4-chlorophenyl)-1H-pyrazol-3-yl]oxy}methyl)phenyl]-2-[(fluoromethoxy)imino]-N-methylacetamide] came in with a chromatographic logP of 3.3.

`COC(=O)C(=NOCF)c1ccccc1COc1ccn(-c2ccc(Cl)cc2)n1` [Example 1, methyl 2-[2-({[1-(4-chlorophenyl)-1H-pyrazol-3-yl]oxy}methyl)phenyl]-2-[(fluoromethoxy)imino]acetate]: the chromatographic logP amounted to 3.86.

The same series, now with this note: HPLC, gradient method, acetonitrile/0.1% aqueous phosphoric acid.
Usually logP stands for the decadic logarithm of the partition coefficient of the neutral form, usually between octanol and water. Low readings indicate a more hydrophilic compound, high ones a more lipophilic compound. Molecule `CNC(=O)C(=NOCF)c1ccccc1OCc1ccn(-c2cccc(C)c2)n1` [Example 31] returned a logP of 3.15.

The molecule `CNC(=O)C(=NOCF)c1ccccc1OCc1ccn(-c2ccccc2F)n1` [Example 32] yielded a logP of 2.93. Same read-out and setting: the same measure for `COC(=O)C(=NOCF)c1ccccc1OCc1ccn(-c2cccc(Cl)c2)n1` [Example 37]: 3.88; for `COC(=O)C(=NOCF)c1ccccc1OCc1ccn(-c2cccc(Br)c2)n1` [Example 16]: 3.98; for `COC(=O)C(=NOCF)c1ccccc1OCc1ccn(-c2ccc(C)c(C)c2)n1` [Example 28]: 3.92. The same measure, in the same setting: next, `CNC(=O)C(=NOCF)c1ccccc1OCc1ccn(-c2ccc(C)cc2)n1` [Example 41]: 3.14; `CNC(=O)C(=NOCF)c1ccccc1OCc1ccn(-c2ccc(C#N)cc2)n1` [Example 42]: 2.64. Still for that read-out and setting: next, `CNC(=O)C(=NOCF)c1ccccc1OCc1ccn(-c2ccc(Br)cc2)n1` [Example 6]: 3.4; `CNC(=O)C(=NOCF)c1ccccc1OCc1ccn(-c2ccc(F)cc2F)n1` [Example 33]: 3.02. `CNC(=O)C(=NOCF)c1ccccc1OCc1ccn(-c2ccc(F)cc2)n1` [Example 3]: the logP stood at 2.91.

The molecule `CNC(=O)C(=NOCF)c1ccccc1OCc1ccn(-c2cccc(Cl)c2)n1` [Example 43] displayed a logP of 3.3. Same read-out and setting: next, `COC(=O)C(=NOCF)c1ccccc1OCc1ccn(-c2ccc(C)cc2)n1` [Example 10]: 3.74. Same read-out and setting: the same measure for `CNC(=O)C(=NOCF)c1ccccc1OCc1ccn(-c2cccc(Br)c2)n1` [Example 5]: 3.39; for `COC(=O)C(=NOCF)c1ccccc1OCc1ccn(-c2cc(Cl)cc(Cl)c2)n1` [Example 15]: 4.52; for `COC(=O)C(=NOCF)c1ccccc1OCc1ccn(-c2cc(Cl)ccc2Cl)n1` [Example 29]: 4.5. Still for that read-out and setting: the same measure for `COC(=O)C(=NOCF)c1ccccc1OCc1ccn(-c2ccc(C#N)cc2)n1` [Example 9]: 3.18; for `CNC(=O)C(=NOCF)c1ccccc1OCc1ccn(-c2ccc(C(C)C)cc2)n1` [Example 38]: 3.83. `CNC(=O)C(=NOCF)c1ccccc1OCc1ccn(-c2ccccc2Cl)n1` [Example 22] returned a logP of 2.96.

In turn, `COC(=O)C(=NOCF)c1ccccc1OCc1ccn(-c2ccc(Br)cc2)n1` [Example 13] showed a logP of 3.98. For `COC(=O)C(=NOCF)c1ccccc1OCc1ccn(-c2ccccc2)n1` [Example 14], the logP came to 3.4. For `COC(=O)C(=NOCF)c1ccccc1OCc1ccn(-c2ccccc2Br)n1` [Example 12], the logP amounted to 3.54. Same read-out and setting: next, `COC(=O)C(=NOCF)c1ccccc1OCc1ccn(-c2ccccc2F)n1` [Example 25]: 3.51; `COC(=O)C(=NOCF)c1ccccc1OCc1ccn(-c2ccc(Cl)cc2Cl)n1` [Example 11]: 4.09; `COC(=O)C(=NOCF)c1ccccc1OCc1ccn(-c2cccc(Cl)c2Cl)n1` [Example 27]: 3.9. In turn, `COC(=O)C(=NOCF)c1ccccc1OCc1ccn(-c2ccccc2Cl)n1` [Example 8] gave a logP of 3.53.

`CNC(=O)C(=NOCF)c1ccccc1OCc1ccn(-c2cc(Cl)cc(Cl)c2)n1` [Example 7] yielded a logP of 3.93. The same measure, in the same setting: next, `CNC(=O)C(=NOCF)c1ccccc1OCc1ccn(-c2cccc(Cl)c2Cl)n1` [Example 34]: 3.31; `CNC(=O)C(=NOCF)c1ccccc1OCc1ccn(-c2ccc(Cl)cc2Cl)n1` [Example 19]: 3.5; `COC(=O)C(=NOCF)c1ccccc1OCc1ccn(-c2cccc(C)c2)n1` [Example 30]: 3.73. Take `CNC(=O)C(=NOCF)c1ccccc1OCc1ccn(-c2ccccc2)n1` [Example 18]: the logP turned out to be 2.83. The same measure, in the same setting: next, `CNC(=O)C(=NOCF)c1ccccc1OCc1ccn(-c2cc(Cl)ccc2Cl)n1` [Example 36]: 3.43. The molecule `COC(=O)C(=NOCF)c1ccccc1OCc1ccn(-c2ccc(F)cc2)n1` [Example 17] returned a logP of 3.47. `CNC(=O)C(=NOCF)c1ccccc1OCc1ccn(-c2ccc(C(C)(C)C)cc2)n1` [Example 23] registered a logP of 4.04. Still for that read-out and setting: next, `COC(=O)C(=NOCF)c1ccccc1OCc1ccn(-c2ccc(F)cc2F)n1` [Example 26]: 3.52. Same read-out and setting: next, `COC(=O)C(=NOCF)c1ccccc1OCc1ccn(-c2ccc(C(C)(C)C)cc2)n1` [Example 21]: 4.63; `COC(=O)C(=NOCF)c1ccccc1OCc1ccn(-c2ccc(C(C)C)cc2)n1` [Example 4]: 4.38.

For another series, the system named is Puccinia recondita. The series is described as follows: Puccinia Test (wheat)/curative. Conditions: curative, application rate 250 g/ha, evaluation 10 days after inoculation. It counts as in vivo. Here is the method:
Puccinia Test (wheat)/curative Solvent: 25 parts by weight of N,N-dimethylacetamide Emulsifier: 0.6 part by weight of alkylaryl polyglycol ether To produce a suitable preparation of active compound, 1 part by weight of active compound is mixed with the stated amounts of solvent and emulsifier, and the concentrate is diluted with water to the desired concentration. To test for curative activity, young plants are sprayed with a conidia suspension of Puccinia recondita. The plants remain in an incubation cabin at 20° C. and 100% relative atmospheric humidity for 48 hours. The plants are then sprayed with the preparation of active compound at the stated application rate. The plants are placed in a greenhouse at a temperature of about 20° C. and a relative atmospheric humidity of about 80% to promote the development of rust pustules.
As for `CNC(=O)C(=NOCF)c1ccccc1COc1ccn(-c2ccc(Cl)cc2)n1` [Example 2, 2-[2-({[1-(4-chlorophenyl)-1H-pyrazol-3-yl]oxy}methyl)phenyl]-2-[(fluoromethoxy)imino]-N-methylacetamide], the efficacy is listed as ≥ 98%.

For another series, the system named is Puccinia recondita. The series is described as follows: Puccinia Test (wheat)/protective. The settings on record: protective, application rate 250 g/ha, evaluation 10 days after inoculation. It counts as in vivo. Here is the method:
Puccinia Test (wheat)/protective Solvent: 25 parts by weight of N,N-dimethylacetamide Emulsifier: 0.6 part by weight of alkylaryl polyglycol ether To produce a suitable preparation of active compound, 1 part by weight of active compound is mixed with the stated amounts of solvent and emulsifier, and the concentrate is diluted with water to the desired concentration. To test for protective activity, young plants are sprayed with the preparation of active compound at the stated application rate. After the spray coating has dried on, the plants are sprayed with a conidia suspension of Puccinia recondita. The plants remain in an incubation cabin at 20° C. and 100% relative atmospheric humidity for 48 hours. The plants are then placed in a greenhouse at a temperature of about 20° C. and a relative atmospheric humidity of 80% to promote the development of rust pustules.
As for `COC(=O)C(=NOCF)c1ccccc1COc1ccn(-c2ccc(Cl)cc2)n1` [Example 1, methyl 2-[2-({[1-(4-chlorophenyl)-1H-pyrazol-3-yl]oxy}methyl)phenyl]-2-[(fluoromethoxy)imino]acetate], the efficacy was ≥ 98%.
